What was measured:
LNCAP cells = assay: Inhibition of R1881 stimulated cell growth in LNCAP cells (CellTiter-Glo); assay type: cell-based; settings: Homo sapiens, 144 h, 10% CSS, 6 days
Protocol: (§1) LNCAP and VCAP cells were seeded in 96-well plates at 5000 (LNCAP) and 6000 (VCAP) cells/well in phenol red-free RPM11640 supplemented with 10% charcoal stripped serum (CSS), and then incubated at 37° C. overnight. The following day, the test compound was administered to the cells by using 1000× compound stock solution prepared in DMSO at various concentrations. 1000× compound stock solution was first diluted 1:100 in phenol red-free RPM11640 supplemented with 10% CSS and 1 nM R1881 to prepare the 10× treatment solutions containing serial dilutions of AC176 together in the presence of 1 nM, and then 10 uL compound medium was added to each well in the cell plates. After administration of the compound, the cells were then incubated at 37° C. for 6 days. Upon completion, the plates were equilibrated at room temperature for approximately 10 minutes. 100 ul of CellTiter-Glo® 3D Reagent (Promega) was added to each well. The plates were then incubated at room temperature for 30 minutes and luminescence was recorded by EnSpire plate reader (PerkinElmer). The results are shown in Table 5, which summarizes the growth inhibition (G150) in LNCAP and VCAP cells with exemplary compounds of the present disclosure.

VCAP cells = assay: Inhibition of R1881 stimulated cell growth in VCAP cells (CellTiter-Glo); assay type: cell-based; settings: Homo sapiens, 144 h, 10% CSS, 6 days
Protocol: as §1

| GI50 (LNCAP cells) [nM] | GI50 (VCAP cells) [nM] | SMILES |
| --- | --- | --- |
| ≤ 50 | ≤ 50 | CC1(C)[C@H](NC(=O)c2ccc(N3CCC(CN4CCN(c5ccc6c(c5)CN([C@H]5CCC(=O)NC5=O)C6=O)CC4)CC3)c(F)c2)C(C)(C)[C@H]1Oc1ccc(C#N)c2[nH]c(=O)ccc12 [Compound 16, N-((1,3-trans)-3-((8-cyano-2-oxo-1,2-dihydroquinolin-5-yl)oxy)-2,2,4,4-tetramethylcyclobutyl)-4-(4-((4-(2-((S)-2,6-dioxopiperidin-3-yl)-1-oxoisoindolin-5-yl)piperazin-1-yl)methyl)piperidin-1-yl)-3-fluorobenzamide] |
| ≤ 50 | ≤ 50 | CC1(C)C(NC(=O)c2ccc(N3CCC(CN4CCN(c5ccc6c(c5)CN([C@H]5CCC(=O)NC5=O)C6=O)CC4)CC3)cc2)C(C)(C)C1Oc1ccc(C#N)c2[nH]c(=O)ccc12 (stereo partly drawn) [Compound 18, N-((1,3-trans)-3-((8-cyano-2-oxo-1,2-dihydroquinolin-5-yl)oxy)-2,2,4,4-tetramethylcyclobutyl)-4-(4-((4-(2-((S)-2,6-dioxopiperidin-3-yl)-1-oxoisoindolin-5-yl)piperazin-1-yl)methyl)piperidin-1-yl)benzamide] |
| > 500 | 50 to 500 | CC1(C)C(NC(=O)c2ccc(N3CCC(CN4CCN(c5ccc6c(c5)C(=O)N(C5CCC(=O)NC5=O)C6=O)CC4)CC3)cc2)C(C)(C)C1Oc1ccc(C#N)c2[nH]c(=O)ccc12 (stereo not drawn) [Compound 20, N-((1,3-trans)-3-((8-cyano-2-oxo-1,2-dihydroquinolin-5-yl)oxy)-2,2,4,4-tetramethylcyclobutyl)-4-(4-((4-(2-(2,6-dioxopiperidin-3-yl)-1,3-dioxoisoindolin-5-yl)piperazin-1-yl)methyl)piperidin-1-yl)benzamide] |
| ≤ 50 | ≤ 50 | CC1(C)C(NC(=O)c2ccc(N3CCC(CN4CCN(c5ccc6c(c5)CN([C@H]5CCC(=O)NC5=O)C6=O)CC4)CC3)cc2)C(C)(C)C1Oc1ccc(C#N)c2[nH]ccc(=O)c12 (stereo partly drawn) [Compound 30, N-((1,3-trans)-3-((8-cyano-4-oxo-1,4-dihydroquinolin-5-yl)oxy)-2,2,4,4-tetramethylcyclobutyl)-4-(4-((4-(2-((S)-2,6-dioxopiperidin-3-yl)-1-oxoisoindolin-5-yl)piperazin-1-yl)methyl)piperidin-1-yl)benzamide] |
| ≤ 50 | ≤ 50 | Cn1c(=O)ccc2c(OC3C(C)(C)C(NC(=O)c4ccc(N5CCC(CN6CCN(c7ccc8c(c7)CN([C@H]7CCC(=O)NC7=O)C8=O)CC6)CC5)cc4)C3(C)C)ccc(C#N)c21 (stereo partly shown) [Compound 34] |
| ≤ 50 | ≤ 50 | Cn1ccc(=O)c2c(O[C@H]3C(C)(C)[C@H](NC(=O)c4ccc(N5CCC(CN6CCN(c7ccc8c(c7)CN([C@H]7CCC(=O)NC7=O)C8=O)CC6)CC5)cc4)C3(C)C)ccc(C#N)c21 [Compound 39, N-((1,3-trans)-3-((8-cyano-1-methyl-4-oxo-1,4-dihydroquinolin-5-yl)oxy)-2,2,4,4-tetramethylcyclobutyl)-4-(4-((4-(2-((S)-2,6-dioxopiperidin-3-yl)-1-oxoisoindolin-5-yl)piperazin-1-yl)methyl)piperidin-1-yl)benzamide] |
| > 500 | 50 to 500 | CC1(C)C(NC(=O)c2ccc(N3CCC(CN4CCN(c5ccc(C(=O)N[C@H]6CCC(=O)NC6=O)nc5)CC4)CC3)cc2)C(C)(C)C1Oc1ccc(C#N)c2[nH]c(=O)ccc12 (stereo partly drawn) [Compound 43, 5-(4-((1-(4-(((1,3-trans)-3-((8-cyano-2-oxo-1,2-dihydroquinolin-5-yl)oxy)-2,2,4,4-tetramethylcyclobutyl)carbamoyl)phenyl)piperidin-4-yl)methyl)piperazin-1-yl)-N-((S)-2,6-dioxopiperidin-3-yl)picolinamide] |
| > 500 | 50 to 500 | CC1(C)C(NC(=O)c2ccc(N3CCC(CN4CCN(c5ccc6c(=O)n(C7CCC(=O)NC7=O)ncc6c5)CC4)CC3)cc2)C(C)(C)C1Oc1ccc(C#N)c2[nH]c(=O)ccc12 (stereo not drawn) [Compound 49, N-((1,3-trans)-3-((8-cyano-2-oxo-1,2-dihydroquinolin-5-yl)oxy)-2,2,4,4-tetramethylcyclobutyl)-4-(4-((4-(2-(2,6-dioxopiperidin-3-yl)-1-oxo-1,2-dihydrophthalazin-6-yl)piperazin-1-yl)methyl)piperidin-1-yl)benzamide] |

From patent US20240190842A1, “SUBSTITUTED QUINOLINONE-8-CARBONITRILE DERIVATIVES HAVING ANDROGEN DEGRADATION ACTIVITY AND USES THEREOF” (Accutar Biotechnology Inc., priority 2022, published 2024)
